O=C(N[C@H](C(=O)O)c1ccccc1)OCc1ccccc1
solubility (mole fraction)
Conditions | 283.15 K | 288.15 K | 293.15 K | 298.15 K | 303.15 K | 313.15 K | 323.15 K
in 2-butanone | 0.0446 | – | 0.0596 | – | 0.0762 | 0.0957 | 0.111
in acetone | 0.0605 | – | 0.0786 | – | 0.1 | 0.129 | 0.159
in acetonitrile | 0.0067 | – | 0.00966 | – | 0.0143 | 0.0253 | 0.053
in dichloromethane | 0.00624 | 0.00703 | 0.00874 | 0.0112 | 0.0149 | – | –
in ethanol | 0.0235 | – | 0.0354 | – | 0.0581 | 0.0922 | 0.141
in ethyl acetate | 0.0209 | – | 0.0274 | – | 0.0371 | 0.0549 | 0.073
in isopropanol | 0.0107 | – | 0.0175 | – | 0.0328 | 0.0604 | 0.105
in methanol | 0.0325 | – | 0.0479 | – | 0.0794 | 0.111 | 0.146
in methyl acetate | 0.028 | – | 0.0399 | – | 0.0541 | 0.0739 | 0.0918
in n-propanol | 0.0141 | – | 0.0231 | – | 0.039 | 0.068 | 0.11
in water | 1.1e-05 | – | 2.4e-05 | – | 4.5e-05 | 5.7e-05 | 6.9e-05

Reference: BigSolDB 2.1
